# Data from ChEMBL document CHEMBL1806384, “Identification of benzofuran-4,5-diones as novel and selective non-hydroxamic acid, non-peptidomimetic based inhibitors of human peptide deformylase” (Bioorg Med Chem Lett, 2011).
# System: Streptococcus pneumoniae
# Assay: Antibacterial activity against Streptococcus pneumoniae ATCC 6301
# Assay type: functional
# Details: not given
row,Compound,MIC [µg/mL]
1,O=C1C(=O)c2c(C(=O)c3ccccc3)coc2C(Cl)=C1Cl,4

# Molecular target: T1, Peptide deformylase, mitochondrial (Homo sapiens) (UniProt Q9HBH1)
# T1 sequence (whole entry): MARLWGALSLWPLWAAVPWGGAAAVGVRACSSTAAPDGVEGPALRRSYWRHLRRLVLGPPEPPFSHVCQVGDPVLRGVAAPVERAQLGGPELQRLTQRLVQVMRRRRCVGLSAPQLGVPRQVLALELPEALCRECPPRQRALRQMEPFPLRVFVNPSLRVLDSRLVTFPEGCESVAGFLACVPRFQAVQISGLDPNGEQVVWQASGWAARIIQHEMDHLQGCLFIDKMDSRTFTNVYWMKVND
# Assay: Inhibition of human peptide deformylase at 100 uM after 1 hr by fluorescence polarization based competition assay
# Details: not given
row,Compound,inhibition [%]
1,COc1cc(C(=O)c2coc3c2C(=O)C(=O)C(Br)=C3Br)cc(OC)c1OC,100
2,O=C1C(=O)c2c(C(=O)c3ccccc3)coc2C(Cl)=C1Cl,100

# System: Staphylococcus aureus
# Assay: Antibacterial activity against Staphylococcus aureus ATCC 29213
# Assay type: functional
# Details: not given
row,Compound,MIC [µg/mL]
1,O=C(O)c1cn(C2CC2)c2cc(N3CCNCC3)c(F)cc2c1=O [CIPROFLOXACIN],0.5
2,O=C1C(=O)c2c(C(=O)c3ccccc3)coc2C(Cl)=C1Cl,> 64

# System: Cutibacterium acnes
# Assay: Antibacterial activity against Propionibacterium acnes ATCC 11827
# Assay type: functional
# Details: not given
row,Compound,MIC [µg/mL]
1,O=C(O)c1cn(C2CC2)c2cc(N3CCNCC3)c(F)cc2c1=O [CIPROFLOXACIN],0.25
2,O=C1C(=O)c2c(C(=O)c3ccccc3)coc2C(Cl)=C1Cl,> 64

# Molecular target: T2, Interstitial collagenase (Homo sapiens) (UniProt P03956)
# T2 sequence (whole entry): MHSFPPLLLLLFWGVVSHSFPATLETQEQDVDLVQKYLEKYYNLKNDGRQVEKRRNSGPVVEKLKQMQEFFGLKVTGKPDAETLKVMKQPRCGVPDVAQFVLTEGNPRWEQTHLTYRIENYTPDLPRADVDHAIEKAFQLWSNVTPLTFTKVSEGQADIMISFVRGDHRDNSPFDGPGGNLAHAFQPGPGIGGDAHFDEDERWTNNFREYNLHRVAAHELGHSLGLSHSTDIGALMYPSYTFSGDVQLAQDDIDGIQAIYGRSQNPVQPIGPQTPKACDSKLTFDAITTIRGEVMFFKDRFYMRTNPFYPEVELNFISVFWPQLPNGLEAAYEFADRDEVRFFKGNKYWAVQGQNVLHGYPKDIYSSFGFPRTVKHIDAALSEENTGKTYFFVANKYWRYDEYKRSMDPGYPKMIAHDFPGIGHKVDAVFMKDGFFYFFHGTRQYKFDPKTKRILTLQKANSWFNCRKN
# Assay: Inhibition of human recombinant MMP1 at 100 uM after 1 hr by fluorescence polarization based competition assay
# Details: not given
row,Compound,inhibition [%]
1,COc1cc(C(=O)c2coc3c2C(=O)C(=O)C(Br)=C3Br)cc(OC)c1OC,38
2,O=C1C(=O)c2c(C(=O)c3ccccc3)coc2C(Cl)=C1Cl,41

# System: not listed separately
# Assay: Cytotoxicity against human CWR22 cells
# Assay type: functional, cell-based
# Details: not given
row,Compound,IC50 [µM]
1,COc1cc(C(=O)c2coc3c2C(=O)C(=O)C(Br)=C3Br)cc(OC)c1OC,21
2,O=C1C(=O)c2c(C(=O)c3ccccc3)coc2C(Cl)=C1Cl,72

# System: HEK293
# Assay: Cytotoxicity against human HEK293 cells
# Assay type: cell-based
# Details: not given
row,Compound,IC50 [µM]
1,COc1cc(C(=O)c2coc3c2C(=O)C(=O)C(Br)=C3Br)cc(OC)c1OC,16
2,O=C1C(=O)c2c(C(=O)c3ccccc3)coc2C(Cl)=C1Cl,100

# System: Staphylococcus epidermidis
# Assay: Antibacterial activity against Staphylococcus epidermidis ATCC 12228
# Assay type: functional
# Details: not given
row,Compound,MIC [µg/mL]
1,O=C(O)c1cn(C2CC2)c2cc(N3CCNCC3)c(F)cc2c1=O [CIPROFLOXACIN],≤ 0.12
2,O=C1C(=O)c2c(C(=O)c3ccccc3)coc2C(Cl)=C1Cl,> 64

# System: Enterobacter cloacae
# Assay: Antibacterial activity against Enterobacter cloacae ATCC 13047
# Assay type: functional
# Details: not given
row,Compound,MIC [µg/mL]
1,O=C1C(=O)c2c(C(=O)c3ccccc3)coc2C(Cl)=C1Cl,> 64

# System: Bacteroides fragilis
# Assay: Antibacterial activity against Bacteroides fragilis ATCC 25285
# Assay type: functional
# Details: not given
row,Compound,MIC [µg/mL]
1,O=C(O)c1cn(C2CC2)c2cc(N3CCNCC3)c(F)cc2c1=O [CIPROFLOXACIN],4
2,O=C1C(=O)c2c(C(=O)c3ccccc3)coc2C(Cl)=C1Cl,> 64

# System: Citrobacter freundii
# Assay: Antibacterial activity against Citrobacter freundii ATCC 8090
# Assay type: functional
# Details: not given
row,Compound,MIC [µg/mL]
1,O=C(O)c1cn(C2CC2)c2cc(N3CCNCC3)c(F)cc2c1=O [CIPROFLOXACIN],≤ 0.12
2,O=C1C(=O)c2c(C(=O)c3ccccc3)coc2C(Cl)=C1Cl,> 64

# System: Haemophilus influenzae
# Assay: Antibacterial activity against Haemophilus influenzae ATCC 49766
# Assay type: functional
# Details: not given
row,Compound,MIC [µg/mL]
1,O=C(O)c1cn(C2CC2)c2cc(N3CCNCC3)c(F)cc2c1=O [CIPROFLOXACIN],≤ 0.12
2,O=C1C(=O)c2c(C(=O)c3ccccc3)coc2C(Cl)=C1Cl,> 64

# System: Y79
# Assay: Cytotoxicity against human Y79 cells
# Assay type: functional, cell-based
# Details: not given
row,Compound,IC50 [µM]
1,COc1cc(C(=O)c2coc3c2C(=O)C(=O)C(Br)=C3Br)cc(OC)c1OC,33
2,O=C1C(=O)c2c(C(=O)c3ccccc3)coc2C(Cl)=C1Cl,100

# Molecular target: T1, Peptide deformylase, mitochondrial (Homo sapiens)
# Assay: Inhibition of human peptide deformylase at 10 uM after 1 hr by fluorescence polarization based competition assay
# Details: not given
row,Compound,inhibition [%]
1,O=C1C(=O)c2c(C(=O)c3ccccc3)coc2C(Cl)=C1Cl,90

# System: Jurkat
# Assay: Cytotoxicity against human Jurkat cells
# Assay type: functional, cell-based
# Details: not given
row,Compound,IC50 [µM]
1,COc1cc(C(=O)c2coc3c2C(=O)C(=O)C(Br)=C3Br)cc(OC)c1OC,2.8

# System: Streptococcus pyogenes
# Assay: Antibacterial activity against Streptococcus pyogenes ATCC 19615
# Assay type: functional
# Details: not given
row,Compound,MIC [µg/mL]
1,O=C(O)c1cn(C2CC2)c2cc(N3CCNCC3)c(F)cc2c1=O [CIPROFLOXACIN],0.25
2,O=C1C(=O)c2c(C(=O)c3ccccc3)coc2C(Cl)=C1Cl,> 64

# System: Candida albicans
# Assay: Antifungal activity against Candida albicans ATCC 90028
# Assay type: functional
# Details: not given
row,Compound,MIC [µg/mL]
1,O=C(O)c1cn(C2CC2)c2cc(N3CCNCC3)c(F)cc2c1=O [CIPROFLOXACIN],> 64
2,O=C1C(=O)c2c(C(=O)c3ccccc3)coc2C(Cl)=C1Cl,> 64

# System: HL-60
# Assay: Antitumor activity against human HL60 cells xenografted in athymic nude mouse assessed as tumor growth delay at 15 mg/kg, ip administered 3 times a week for 2 weeks
# Assay type: functional
# Details: route intraperitoneal
row,Compound,Activity [%]
1,COc1cc(C(=O)c2coc3c2C(=O)C(=O)C(Br)=C3Br)cc(OC)c1OC,40

# System: Enterococcus faecium
# Assay: Antibacterial activity against Enterococcus faecium ATCC 19434
# Assay type: functional
# Details: not given
row,Compound,MIC [µg/mL]
1,O=C(O)c1cn(C2CC2)c2cc(N3CCNCC3)c(F)cc2c1=O [CIPROFLOXACIN],4
2,O=C1C(=O)c2c(C(=O)c3ccccc3)coc2C(Cl)=C1Cl,> 64

# System: Escherichia coli
# Assay: Antibacterial activity against Escherichia coli ATCC 25922
# Assay type: functional
# Details: not given
row,Compound,MIC [µg/mL]
1,O=C(O)c1cn(C2CC2)c2cc(N3CCNCC3)c(F)cc2c1=O [CIPROFLOXACIN],≤ 0.12
2,O=C1C(=O)c2c(C(=O)c3ccccc3)coc2C(Cl)=C1Cl,> 64

# Molecular target: T3, Peptide deformylase (Escherichia coli) (UniProt Q9JN24)
# T3 sequence (whole entry): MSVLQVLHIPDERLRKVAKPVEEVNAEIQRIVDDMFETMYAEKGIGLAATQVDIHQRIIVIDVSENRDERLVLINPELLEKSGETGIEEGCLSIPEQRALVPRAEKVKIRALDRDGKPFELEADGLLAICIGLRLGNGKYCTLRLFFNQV
# Assay: Inhibition of Escherichia coli peptide deformylase at 100 uM after 1 hr by fluorescence polarization based competition assay
# Details: not given
row,Compound,inhibition [%]
1,COc1cc(C(=O)c2coc3c2C(=O)C(=O)C(Br)=C3Br)cc(OC)c1OC,32
2,O=C1C(=O)c2c(C(=O)c3ccccc3)coc2C(Cl)=C1Cl,65

# System: not listed separately
# Assay: Cytotoxicity against human ALL3 cells
# Assay type: functional, cell-based
# Details: not given
row,Compound,IC50 [µM]
1,COc1cc(C(=O)c2coc3c2C(=O)C(=O)C(Br)=C3Br)cc(OC)c1OC,10
2,O=C1C(=O)c2c(C(=O)c3ccccc3)coc2C(Cl)=C1Cl,69

# Molecular target: T4, Peptide deformylase (Escherichia coli, UniProt Q9JN24)
# T4 sequence (Q9JN24 whole entry): T3 sequence (whole entry)
# Assay: Inhibition of Escherichia coli peptide deformylase after 1 hr by fluorescence polarization based competition assay
# Details: not given
row,Compound,IC50 [µM]
1,COc1cc(C(=O)c2coc3c2C(=O)C(=O)C(Br)=C3Br)cc(OC)c1OC,> 100
2,O=C1C(=O)c2c(C(=O)c3ccccc3)coc2C(Cl)=C1Cl,> 100

# System: not listed separately
# Assay: Cytotoxicity against human Meso47 cells
# Assay type: functional, cell-based
# Details: not given
row,Compound,IC50 [µM]
1,COc1cc(C(=O)c2coc3c2C(=O)C(=O)C(Br)=C3Br)cc(OC)c1OC,37
2,O=C1C(=O)c2c(C(=O)c3ccccc3)coc2C(Cl)=C1Cl,100

# System: MOLT-3
# Assay: Cytotoxicity against human MOLT3 cells
# Assay type: functional, cell-based
# Details: not given
row,Compound,IC50 [µM]
1,COc1cc(C(=O)c2coc3c2C(=O)C(=O)C(Br)=C3Br)cc(OC)c1OC,2.9
2,O=C1C(=O)c2c(C(=O)c3ccccc3)coc2C(Cl)=C1Cl,31

# Molecular target: T5, Aminopeptidase N (Sus scrofa) (UniProt P15145)
# T5 sequence (whole entry): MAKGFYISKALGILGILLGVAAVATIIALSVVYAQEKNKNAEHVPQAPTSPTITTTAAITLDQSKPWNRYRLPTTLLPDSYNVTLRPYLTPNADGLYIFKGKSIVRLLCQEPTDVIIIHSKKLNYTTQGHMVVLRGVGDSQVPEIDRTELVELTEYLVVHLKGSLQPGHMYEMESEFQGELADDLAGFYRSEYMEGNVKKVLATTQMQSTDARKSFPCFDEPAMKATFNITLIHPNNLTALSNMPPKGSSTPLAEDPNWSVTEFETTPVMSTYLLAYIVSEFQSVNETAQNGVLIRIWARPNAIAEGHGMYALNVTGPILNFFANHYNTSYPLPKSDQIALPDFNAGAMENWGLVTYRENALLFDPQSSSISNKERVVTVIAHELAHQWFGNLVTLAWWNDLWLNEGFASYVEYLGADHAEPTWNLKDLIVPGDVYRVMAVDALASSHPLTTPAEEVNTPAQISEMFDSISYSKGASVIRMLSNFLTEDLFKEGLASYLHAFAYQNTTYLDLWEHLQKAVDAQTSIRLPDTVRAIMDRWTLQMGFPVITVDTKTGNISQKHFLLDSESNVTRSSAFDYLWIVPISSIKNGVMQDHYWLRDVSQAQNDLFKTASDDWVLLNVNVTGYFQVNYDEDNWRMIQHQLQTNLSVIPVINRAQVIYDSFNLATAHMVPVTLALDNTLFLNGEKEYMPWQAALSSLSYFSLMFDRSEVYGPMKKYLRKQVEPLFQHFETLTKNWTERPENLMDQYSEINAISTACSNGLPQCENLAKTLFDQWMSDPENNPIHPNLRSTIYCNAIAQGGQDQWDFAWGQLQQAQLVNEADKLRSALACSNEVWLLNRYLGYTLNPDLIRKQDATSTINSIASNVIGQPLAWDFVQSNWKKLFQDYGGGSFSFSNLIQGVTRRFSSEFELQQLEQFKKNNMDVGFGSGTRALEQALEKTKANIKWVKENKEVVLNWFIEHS
# Assay: Inhibition of porcine kidney microsomal aminopeptidase N at 100 uM after 1 hr by fluorescence polarization based competition assay
# Details: not given
row,Compound,inhibition [%]
1,COc1cc(C(=O)c2coc3c2C(=O)C(=O)C(Br)=C3Br)cc(OC)c1OC,50
2,O=C1C(=O)c2c(C(=O)c3ccccc3)coc2C(Cl)=C1Cl,101

# System: HL-60
# Assay: Cytotoxicity against human vincristine-resistant HL60 cells
# Assay type: functional, cell-based
# Details: not given
row,Compound,IC50 [µM]
1,COc1cc(C(=O)c2coc3c2C(=O)C(=O)C(Br)=C3Br)cc(OC)c1OC,12
2,O=C1C(=O)c2c(C(=O)c3ccccc3)coc2C(Cl)=C1Cl,100

# System: Enterococcus faecalis
# Assay: Antibacterial activity against Enterococcus faecalis ATCC 29212
# Assay type: functional
# Details: not given
row,Compound,MIC [µg/mL]
1,O=C(O)c1cn(C2CC2)c2cc(N3CCNCC3)c(F)cc2c1=O [CIPROFLOXACIN],0.25
2,O=C1C(=O)c2c(C(=O)c3ccccc3)coc2C(Cl)=C1Cl,> 64
